The target in the assay is T1, human OX2R (Homo sapiens, UniProt O43614).
T1 construct: expressed in transfected cells; host or cells: CHO (Chinese hamster ovary) cells, grown under G418 selection
T1 sequence (O43614 1-444): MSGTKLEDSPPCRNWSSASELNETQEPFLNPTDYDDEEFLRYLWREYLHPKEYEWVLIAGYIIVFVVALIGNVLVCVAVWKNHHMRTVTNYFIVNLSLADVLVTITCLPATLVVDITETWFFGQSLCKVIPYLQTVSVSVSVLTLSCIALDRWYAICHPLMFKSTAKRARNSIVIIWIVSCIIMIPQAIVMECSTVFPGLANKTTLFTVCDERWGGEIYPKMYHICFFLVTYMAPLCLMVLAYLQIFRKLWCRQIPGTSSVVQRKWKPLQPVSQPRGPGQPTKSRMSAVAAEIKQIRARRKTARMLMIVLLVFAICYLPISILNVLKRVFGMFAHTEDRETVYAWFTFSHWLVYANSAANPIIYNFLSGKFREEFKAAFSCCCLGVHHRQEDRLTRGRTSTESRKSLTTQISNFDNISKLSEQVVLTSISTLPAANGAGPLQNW
Briefly: IP-One (IPOne) orexin receptor agonist assay in CHO cells expressing human OX2R. In kind it is cell-based. Particulars: for EC50: CHO cells expressing human OX2R, IP-One IP-1 detection, 2 hours incubation, four parameter logistic fit, read-out: OX2R Potency, EC50; for % of reference agonist maximal effect: human OX2R, percentage of sample raw value/mean max effect (reference compound at 1 uM with 100% activity). In a few lines: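 CHO cells stably expressing human OX2R were stimulated with compound (10-point ½-log dilutions) for 2 h at 37 °C. IP-1 accumulation was read by HTRF (IP-One, 665/620 nm). EC50 from a four-parameter fit; % effect relative to 1 μM reference agonist control.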

`CC(C)[C@H]1CC[C@@H](OC[C@H]2[C@@H](c3cc[nH]n3)CCCN2C(=O)NCC2CCCCC2)CC1` (relative stereo) [Example 123, (CIS)-N-(cyclohexylmethyl)-2-((((CIS)-4-isopropylcyclohexyl)oxy)methyl)-3-(1H-pyrazol-3-yl)piperidine-1-carboxamide]: the EC50 came out at 6730 nM and the “% of reference agonist maximal effect” value amounted to 87.9%.

In the case of `CC(C)[C@H]1CC[C@@H](OC[C@H]2[C@@H](c3cc[nH]n3)CCCN2C(=O)OCc2ccccc2Cl)CC1` (relative stereo) [Example 93, 2-chlorobenzyl (CIS)-2-((((CIS)-4-isopropylcyclohexyl)oxy)methyl)-3-(1H-pyrazol-3-yl)piperidine-1-carboxylate], the EC50 was 5220 nM and the “% of reference agonist maximal effect” value amounted to 28.5%.

For the compound `CCNC(=O)N1CCC[C@H](c2ccn[nH]2)[C@@H]1CO[C@H]1CC[C@@H](C(C)C)CC1` (single isomer, unassigned) [Example 4], the EC50 amounted to 276 nM and the “% of reference agonist maximal effect” value is listed as 100.6%.

`Cc1c[nH]nc1[C@H]1CCCN(C(=O)OCC(F)F)[C@H]1CO[C@H]1CC[C@@H](c2cccc(F)c2)CC1` (relative stereo) [Example 16, 2,2-difluoroethyl (CIS)-2-((((CIS)-4-(3-fluorophenyl)cyclohexyl)oxy)methyl)-3-(4-methyl-1H-pyrazol-3-yl)piperidine-1-carboxylate]: the EC50 worked out at 126 nM and the “% of reference agonist maximal effect” value was determined as 99.9%.

As to `CCNC(=O)N1CCC[C@@H](c2cc[nH]n2)[C@H]1CO[C@H]1CC[C@@H](c2ccccc2)CC1` [Example 19, (2S,3R)-N-ethyl-2-((((CIS)-4-phenylcyclohexyl)oxy)methyl)-3-(1H-pyrazol-3-yl)piperidine-1-carboxamide], the half-maximal effective concentration (EC50) turned out to be 4800 nM and the “% of reference agonist maximal effect” value was 63.1%.

Consider `COC(=O)N1CCC[C@H](c2n[nH]cc2I)[C@@H]1CO[C@H]1CC[C@@H](c2ccccc2)CC1` (relative stereo) [Example 42, Methyl cis-3-(4-iodo-1H-pyrazol-3-yl)-2-((((CIS)-4-phenylcyclohexyl)oxy)methyl)piperidine-1-carboxylate], for which the concentration giving a half-maximal response (EC50) came out at 41.2 nM and the “% of reference agonist maximal effect” value is 100.8%.

As for `COC(=O)N1CCC[C@H](c2n[nH]cc2C(F)F)[C@@H]1CO[C@H]1CC[C@@H](c2ccccc2)CC1` (single isomer, unassigned) [Example 55], the EC50 is 97.5 nM and the “% of reference agonist maximal effect” value is 100.8%.

As to `CC1(C(=O)N2CCC[C@H](c3cc[nH]n3)[C@@H]2CO[C@H]2CC[C@@H](c3ccccc3)CC2)CC1` (relative stereo) [Example 80, (1-methylcyclopropyl)((CIS)-2-((((CIS)-4-phenylcyclohexyl)oxy)methyl)-3-(1H-pyrazol-3-yl)piperidin-1-yl)methanone], the EC50 worked out at 5550 nM and the “% of reference agonist maximal effect” value is listed as 87.5%.

Turning to `Cc1c[nH]nc1[C@@H]1CCCN(C(=O)C2CC2)[C@@H]1CO[C@H]1CC[C@@H](c2cccc(F)c2)CC1` (relative stereo) [Example 14], the EC50 was 65.5 nM and the “% of reference agonist maximal effect” value turned out to be 99.9%.

For `COC(=O)N1CCCC(c2ccn[nH]2)C1CO[C@H]1CC[C@@H](c2c(F)ccc(F)c2F)CC1` (stereo partly drawn) [Example 29], the EC50 amounted to 1360 nM and the “% of reference agonist maximal effect” value was 81.4%.

On to `CC(C)C(=O)N1CCC[C@H](c2cc[nH]n2)[C@@H]1CO[C@H]1CC[C@@H](C(C)C)CC1` (relative stereo) [Example 73, 1-((CIS)-2-((((CIS)-4-isopropylcyclohexyl)oxy)methyl)-3-(1H-pyrazol-3-yl)piperidin-1-yl)-2-methylpropan-1-one], for which the EC50 was 3220 nM and the “% of reference agonist maximal effect” value came to 79.3%.

For the compound `COC(=O)N1CCC[C@H](c2cc[nH]n2)[C@@H]1CO[C@H]1CC[C@@H](c2ccccc2)CC1` (relative stereo) [Example 21, methyl (CIS)-2-((((CIS)-4-phenylcyclohexyl)oxy)methyl)-3-(1H-pyrazol-3-yl)piperidine-1-carboxylate], the EC50 stood at 2100 nM and the “% of reference agonist maximal effect” value came out at 79.9%.

As to `COC(=O)N1CCC[C@H](c2n[nH]cc2C)[C@@H]1CO[C@H]1CC[C@@H](c2cccc(F)c2)CC1` (relative stereo) [Example 15, methyl (CIS)-2-((((CIS)-4-(3-fluorophenyl)cyclohexyl)oxy)methyl)-3-(4-methyl-1H-pyrazol-3-yl)piperidine-1-carboxylate], the EC50 is 117 nM and the “% of reference agonist maximal effect” value is reported as 99.3%.

For `CCNC(=O)N1CCC[C@H](c2cc[nH]n2)[C@@H]1CO[C@H]1CC[C@@H](c2ccccc2)CC1` (single isomer, unassigned) [Example 18, (CIS)-N-ethyl-2-((((CIS)-4-phenylcyclohexyl)oxy)methyl)-3-(1H-pyrazol-3-yl)piperidine-1-carboxamide], the EC50 is 54.7 nM and the “% of reference agonist maximal effect” value was determined as 98.8%.

`CCNC(=O)N1CCCC(c2[nH]ncc2C)C1COC1CCC(C(C)C)CC1` (single isomer, unassigned) [Example 60, N-ethyl-2-(((4-isopropylcyclohexyl)oxy)methyl)-3-(4-methyl-1H-pyrazol-5-yl)piperidine-1-carboxamide]: the EC50 was determined as 56.3 nM and the “% of reference agonist maximal effect” value is 100%.

Take `COCC[C@H](N)C(=O)N1CCC[C@H](c2cc[nH]n2)[C@@H]1COC1CCC(C(C)C)CC1` (stereo partly drawn) [Example 72, (S)-2-amino-1-((CIS)-2-((((CIS)-4-isopropylcyclohexyl)oxy)methyl)-3-(1H-pyrazol-3-yl)piperidin-1-yl)-4-methoxybutan-1-one]: the EC50 was determined as 3110 nM and the “% of reference agonist maximal effect” value worked out at 99.5%.

As to `CCNC(=O)N1CCC[C@H](c2ccn[nH]2)[C@@H]1CO[C@H]1CC[C@@H](c2ccccc2)CC1` (single isomer, unassigned) [Example 1, (CIS)-N-ethyl-2-((((CIS)-4-phenylcyclohexyl)oxy)methyl)-3-(1H-pyrazol-5-yl)piperidine-1-carboxamide], the EC50 was found to be 67.3 nM and the “% of reference agonist maximal effect” value came to 102.6%.

With `COC(=O)N1CCC[C@H](c2n[nH]cc2Cl)[C@@H]1CO[C@H]1CC[C@@H](c2ccccc2Cl)CC1` (racemic) [Example 47, Methyl cis-3-(4-chloro-1H-pyrazol-3-yl)-2-((((CIS)-4-(2-chlorophenyl)cyclohexyl)oxy)methyl)piperidine-1-carboxylate], the EC50 was determined as 357 nM and the “% of reference agonist maximal effect” value is 99.2%.

For the compound `O=C(OCC(F)F)N1CCCC(c2ccn[nH]2)C1CO[C@H]1CC[C@@H](c2c(F)ccc(F)c2F)CC1` (stereo partly drawn) [Example 35, 2,2-Difluoroethyl 3-(1H-pyrazol-5-yl)-2-((((CIS)-4-(2,3,6-trifluorophenyl)cyclohexyl)oxy-)methyl)piperidine-1-carboxylate], the EC50 was 542 nM and the “% of reference agonist maximal effect” value worked out at 97.9%.

As for `CCNC(=O)N1CCC[C@H](c2ccn[nH]2)[C@@H]1COC1CCC(C(C)C)CC1` (relative stereo) [Example 3, (CIS)-N-ethyl-2-(((4-isopropylcyclohexyl)oxy)methyl)-3-(1H-pyrazol-5-yl)piperidine-1-carboxamide], the EC50 stood at 676 nM and the “% of reference agonist maximal effect” value is 99.9%.

Regarding `CC(C)[C@H]1CC[C@@H](OC[C@H]2[C@@H](c3cc[nH]n3)CCCN2C(=O)NCc2ccccc2)CC1` (relative stereo) [Example 122, (CIS)-N-benzyl-2-((((CIS)-4-isopropylcyclohexyl)oxy)methyl)-3-(1H-pyrazol-3-yl)piperidine-1-carboxamide], the EC50 is 2420 nM and the “% of reference agonist maximal effect” value is given as 93.6%.

Turning to `O=C(OCC1CCC1)N1CCC[C@H](c2cc[nH]n2)[C@@H]1CO[C@H]1CC[C@@H](c2ccccc2)CC1` (relative stereo) [Example 104, cyclobutylmethyl (CIS)-2-((((CIS)-4-phenylcyclohexyl)oxy)methyl)-3-(1H-pyrazol-3-yl)piperidine-1-carboxylate], the EC50 worked out at 3850 nM and the “% of reference agonist maximal effect” value was 65.1%.

Regarding `CCNC(=O)N1CCCC(c2[nH]ncc2C)C1COC1CCC(C(C)C)CC1` (single isomer, unassigned) [Example 59, N-ethyl-2-(((4-isopropylcyclohexyl)oxy)methyl)-3-(4-methyl-1H-pyrazol-5-yl)piperidine-1-carboxamide], the EC50 is 593 nM and the “% of reference agonist maximal effect” value was 98.3%.

Take `COCc1c[nH]nc1[C@H]1CCCN(C(=O)OC)[C@H]1CO[C@H]1CC[C@@H](c2ccccc2)CC1` (relative stereo) [Example 57, Methyl cis-3-(4-(methoxymethyl)-1H-pyrazol-3-yl)-2-((((CIS)-4-phenylcyclohexyl)oxy)methyl)-piperidine-1-carboxylate]: the EC50 amounted to 351 nM and the “% of reference agonist maximal effect” value is reported as 99.6%.
